Data from ChEMBL document CHEMBL4028880, “Structure-Activity Relationships of New Natural Product-Based Diaryloxazoles with Selective Activity against Androgen Receptor-Positive Breast Cancer Cells” (J Med Chem, 2017).

Assay: Aqueous solubility of the compound
Type: physicochemical
Conditions: buffer

solubility: Insoluble
SMILES: CC(C)=CCOc1ccc(-c2cnc(-c3ccccc3)o2)cc1
